Measured values reported in patent US20200255415A1, “TETRASUBSTITUTED ALKENE COMPOUNDS AND THEIR USE FOR THE TREATMENT OF BREAST CANCER” (Eisai R&D Management Co., Ltd., priority 2016, published 2020).

Molecular target: T1, human CYP3A4 (Homo sapiens, UniProt P08684)
T1 construct: human CYP3A4 using liver microsomes (0.1 mg/mL); from tissue; host or cells: liver microsomes
Assay: Time-dependent inhibition assay (IC50 shift), liver microsomes
Assay type: in vitro ADME
Details: 30 min pre-incubation; for CYP3A4 TDI: IC50 shift, human liver microsomes, midazolam probe
Description: One of these approaches uses multiple test compound concentrations at a single incubation time, e.g. the “IC50 shift” approach. In an IC50 shift experiment, the IC50 is determined for a CYP marker activity before and after the test compound has been incubated with enzyme and the co-factor nicotinamide adenine dinucleotide phosphate (NADPH) for a set preincubation time (Grimm et al, 2009).
The IC50 shift approach was used to determine whether compounds are time-dependent inhibitors of human CYP3A4 using liver microsomes (0.1 mg/mL). A 30-minute pre-incubation time point was selected, where compounds (9 concentrations, 0 to 30 μmol/L) are incubated at 37° C. in presence and absence of 1 mmol/L NADPH. Following the pre-incubation period, 5 μmol/L midazolam (the probe substrate) was added and formation of hydroxymidazolam was measured by high-performance liquid chromatography-mass spectrometry (LC-MS/MS) analysis following a 5 minute incubation period. Any decrease in the formation of hydroxymidazolam, in peak area ratios to vehicle control, was used to calculate three IC50 values (0 min pre-incubation, 30 min pre-incubation with NADPH, and 30 min pre-incubation without NADPH). […] Assays were performed in duplicate, and mifepristone was used as positive control. In Table 3, “Yes” indicates a TDI shift greater than or equal to 3. “No” indicates a TDI shift greater than or equal to 1 and less than 3.
The IC50 shift approach was also used to determine whether Compound 69 of PCT International Application Publication No. WO/2016/196346 is a time-dependent inhibitor of human CYP3A4 using liver microsomes. Similar to the experimental design described above, a 30-minute pre-incubation time point was selected. Minor variations to the method described above were that Compound 69 of PCT International Application Publication No. WO/2016/196346 was tested at 8 concentrations (0 to 10 μmol/L). Following the pre-incubation period, 3 μmol/L midazolam was added and formation of hydroxymidazolam was measured following a 2 minute incubation period. Since under these experimental conditions, the formation of hydroxymidazolam followed first order kinetics (considered as a linear process), these changes in assay design are not expected to impact the IC50 determinations. In parallel, the IC50 shift assay was also performed with 15.6 μmol/L testosterone (0.05 mg/mL liver microsomes, 10 minute incubation) as second probe substrate. Assays for both probe substrates were performed in triplicate, and mifepristone was used as positive control.

T1 sequence (P08684 whole entry): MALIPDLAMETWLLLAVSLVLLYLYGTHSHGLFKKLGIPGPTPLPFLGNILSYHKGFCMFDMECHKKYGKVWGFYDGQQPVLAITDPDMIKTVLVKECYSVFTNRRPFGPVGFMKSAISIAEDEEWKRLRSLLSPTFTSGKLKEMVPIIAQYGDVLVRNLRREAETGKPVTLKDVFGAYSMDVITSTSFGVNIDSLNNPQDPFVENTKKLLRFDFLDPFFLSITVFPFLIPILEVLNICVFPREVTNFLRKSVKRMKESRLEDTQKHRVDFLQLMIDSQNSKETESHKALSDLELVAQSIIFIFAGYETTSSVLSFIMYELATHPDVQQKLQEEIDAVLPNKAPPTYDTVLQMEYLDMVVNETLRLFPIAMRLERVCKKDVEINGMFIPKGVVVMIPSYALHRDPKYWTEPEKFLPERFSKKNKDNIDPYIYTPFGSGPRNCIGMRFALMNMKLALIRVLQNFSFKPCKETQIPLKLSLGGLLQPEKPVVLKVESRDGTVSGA

| CYP3A4 TDI shift (8 concentrations 0 to 10 μmol/L, 3 μmol/L midazolam and 15.6 μmol/L testosterone probes) | Compound | CYP3A4 TDI |
| --- | --- | --- |
| – | Cl.NC(=O)/C=C/CNCCOc1ccc(/C(=C(/CC(F)(F)F)c2ccccc2)c2ccc3[nH]nc(F)c3c2)cn1 [Compound 56, (E)-4-((2-((5-((Z)-4,4,4-trifluoro-1-(3-fluoro-1H-indazol-5-yl)-2-phenylbut-1-en-1-yl)pyridin-2-yl)oxy)ethyl)amino)but-2-enamide] | No (“No” indicates a TDI shift greater than or equal to 1 and less than 3) |
| – | O=C(/C=C/CNCCOc1ccc(/C(=C(/CC(F)(F)F)c2ccccc2)c2ccc3[nH]nc(F)c3c2)cn1)NCCO [Compound 7, (E)-N-(2-hydroxyethyl)-4-((2-((5-((Z)-4,4,4-trifluoro-1-(3-fluoro-1H-indazol-5-yl)-2-phenylbut-1-en-1-yl)pyridin-2-yl)oxy)ethyl)amino)but-2-enamide] | No (“No” indicates a TDI shift greater than or equal to 1 and less than 3) |
| – | O=C(/C=C/CNCCOc1ccc(/C(=C(\c2ccccc2)C2CCC2)c2ccc3[nH]ncc3c2)cn1)N1CCCC1 [Compound 37] | Yes (“Yes” indicates a TDI shift greater than or equal to 3) |
| – | Cl.NC(=O)/C=C/CNCCOc1ccc(/C(=C(/CC(F)(F)F)c2ccccc2)c2ccc3[nH]nc(F)c3c2)cc1 [Compound 57, (E)-4-((2-(4-((E)-4,4,4-trifluoro-1-(3-fluoro-1H-indazol-5-yl)-2-phenylbut-1-en-1-yl)phenoxy)ethyl)amino)but-2-enamide] | No (“No” indicates a TDI shift greater than or equal to 1 and less than 3) |
| – | CNC(=O)CCCNCCOc1ccc(/C(=C(/CC(F)(F)F)c2ccccc2)c2ccc3[nH]ncc3c2)cc1.Cl [Compound 38, (E)-N-methyl-4-((2-(4-(4,4,4-trifluoro-1-(1H-indazol-5-yl)-2-phenylbut-1-en-1-yl)phenoxy)ethyl)amino)butanamide] | Yes (“Yes” indicates a TDI shift greater than or equal to 3) |
| – | O=C(/C=C/CNCCOc1ccc(/C(=C(\c2ccccc2)C2CCC2)c2ccc3[nH]nc(F)c3c2)cc1)N1CCCC1 [Compound 34] | Yes (“Yes” indicates a TDI shift greater than or equal to 3) |
| – | CC/C(=C(/c1ccc(OCCNC/C=C/C(=O)N2CCCC2)cc1)c1ccc2[nH]nc(F)c2c1)c1ccccc1.Cl [Compound 29, (E)-4-((2-(4-((E)-1-(3-fluoro-1H-indazol-5-yl)-2-phenylbut-1-en-1-yl)phenoxy)ethyl)amino)-1-(pyrrolidin-1-yl)but-2-en-1-one] | No (“No” indicates a TDI shift greater than or equal to 1 and less than 3) |
| – | Cl.O=C(/C=C/CNCCOc1ccc(/C(=C(/CC(F)(F)F)c2ccccc2)c2ccc3[nH]nc(F)c3c2)cn1)N1CCCC1 [Compound 15] | No (“No” indicates a TDI shift greater than or equal to 1 and less than 3) |
| – | Cl.O=C(/C=C/CNCCOc1ccc(/C(=C(\c2ccccc2)C2CCC2)c2ccc3[nH]nc(F)c3c2)cn1)N1CCCC1 [Compound 36, (E)-4-((2-((5-((Z)-2-cyclobutyl-1-(3-fluoro-1H-indazol-5-yl)-2-phenylvinyl)pyridin-2-yl)oxy)ethyl)amino)-1-(pyrrolidin-1-yl)but-2-en-1-one] | Yes (“Yes” indicates a TDI shift greater than or equal to 3) |
| – | CNC(=O)/C=C/CNCCCOc1ccc(/C(=C(/CC(F)(F)F)c2ccccc2)c2ccc3[nH]nc(F)c3c2)cn1.Cl [Compound 61] | No (“No” indicates a TDI shift greater than or equal to 1 and less than 3) |
| – | CNC(=O)CCCNCCOc1ccc(/C(=C(/CC(F)(F)F)c2ccccc2)c2ccc3[nH]nc(F)c3c2)cc1.Cl [Compound 39, (E)-N-methyl-4-((2-(4-(4,4,4-trifluoro-1-(3-fluoro-1H-Indazol-5-yl)-2-phenylbut-1-en-1-yl)phenoxy)ethyl)amino)butanamide] | No (“No” indicates a TDI shift greater than or equal to 1 and less than 3) |
| greater than 3 | CN(C)C(=O)/C=C/CNCCOc1ccc(/C(=C(/CC(F)(F)F)c2ccccc2)c2ccc3[nH]nc(F)c3c2)cc1 [reference compound] | – |
| – | O=C(/C=C/CNCCOc1ccc(/C(=C(/CC(F)(F)F)c2ccccc2)c2ccc3[nH]nc(F)c3c2)cn1)N1CCCCC1 [Compound 55] | Yes (“Yes” indicates a TDI shift greater than or equal to 3) |
| – | O=C(/C=C/CNCCOc1ccc(/C(=C(/CC(F)(F)F)c2ccccc2)c2ccc3[nH]nc(F)c3c2)cn1)N1CCC1 [Compound 60, (E)-1-(azetidin-1-yl)-4-((2-((5-((Z)-4,4,4-trifluoro-1-(3-fluoro-1H-indazol-5-yl)-2-phenylbut-1-en-1-yl)pyridin-2-yl)oxy)ethyl)amino)but-2-en-1-one] | No (“No” indicates a TDI shift greater than or equal to 1 and less than 3) |
| – | CNC(=O)/C=C/CNCCOc1ccc(/C(=C(\c2ccccc2)C2CCC2)c2ccc3[nH]ncc3c2)cn1.Cl [Compound 33, (E)-4-((2-((5-((Z)-2-cyclobutyl-1-(1H-indazol-5-yl)-2-phenylvinyl)pyridin-2-yl)oxy)ethyl)amino)-N-methylbut-2-enamide] | Yes (“Yes” indicates a TDI shift greater than or equal to 3) |
| – | CC/C(=C(/c1ccc(OCCNC/C=C/C(=O)N2CCCC2)nc1)c1ccc2[nH]nc(F)c2c1)c1ccccc1.Cl [Compound 30] | No (“No” indicates a TDI shift greater than or equal to 1 and less than 3) |
| – | CC/C(=C(/c1ccc(OCCNC/C=C/C(=O)NC)cc1)c1ccc2[nH]nc(F)c2c1)c1ccccc1.Cl [Compound 26, (E)-4-((2-(4-((E)-1-(3-fluoro-1H-indazol-5-yl)-2-phenylbut-1-en-1-yl)phenoxy)ethyl)amino)-N-methylbut-2-enamide] | No (“No” indicates a TDI shift greater than or equal to 1 and less than 3) |
| – | CNC(=O)/C=C/CNCCOc1ccc(/C(=C(\c2ccccc2)C2CCC2)c2ccc3[nH]nc(F)c3c2)cc1.Cl [Compound 31, (E)-4-((2-(4-((E)-2-cyclobutyl-1-(3-fluoro-1H-indazol-5-yl)-2-phenylvinyl)phenoxy)ethyl)amino)-N-methylbut-2-enamide] | Yes (“Yes” indicates a TDI shift greater than or equal to 3) |
| – | Cl.[2H]C([2H])([2H])N(C(=O)/C=C/CNCCOc1ccc(/C(=C(/CC(F)(F)F)c2ccccc2)c2ccc3[nH]ncc3c2)cc1)C([2H])([2H])[2H] [Compound 23] | Yes (“Yes” indicates a TDI shift greater than or equal to 3) |
| – | CNC(=O)/C=C/CNCCOc1ccc(/C(=C(\c2ccccc2)C2CCC2)c2ccc3[nH]nc(F)c3c2)cn1.Cl [Compound 32] | Yes (“Yes” indicates a TDI shift greater than or equal to 3) |
| – | CNC(=O)/C=C/CNCCOc1ccc(/C(=C(/CC(F)(F)F)c2ccccc2)c2ccc3[nH]ncc3c2)cn1 [Compound 9, (E)-N-methyl-4-((2-((5-((Z)-4,4,4-trifluoro-1-(1H-indazol-5-yl)-2-phenylbut-1-en-1-yl)pyridin-2-yl)oxy)ethyl)amino)but-2-enamide] | Yes (“Yes” indicates a TDI shift greater than or equal to 3) |
| – | CC/C(=C(/c1ccc(OCCNC/C=C/C(=O)NC)nc1)c1ccc2[nH]nc(F)c2c1)c1ccccc1.Cl [Compound 27, (E)-4-((2-((5-((Z)-1-(3-fluoro-1H-indazol-5-yl)-2-phenylbut-1-en-1-yl)pyridin-2-yl)oxy)ethyl)amino)-N-methylbut-2-enamide] | Yes (“Yes” indicates a TDI shift greater than or equal to 3) |
| – | CC/C(=C(/c1ccc(OCCNC/C=C/C(=O)NC)nc1)c1ccc2[nH]ncc2c1)c1ccc(F)cc1Cl.Cl [Compound 59, (E)-4-((2-((5-((Z)-2-(2-chloro-4-fluorophenyl)-1-(1H-indazol-5-yl)but-1-en-1-yl)pyridin-2-yl)oxy)ethyl)amino)-N-methylbut-2-enamide] | Yes (“Yes” indicates a TDI shift greater than or equal to 3) |
| – | Cl.O=C(/C=C/CNCCOc1ccc(/C(=C(/CC(F)(F)F)c2ccccc2)c2ccc3[nH]nc(F)c3c2)cc1)N1CCCC1 [Compound 13, (E)-1-(pyrrolidin-1-yl)-4-((2-(4-((E)-4,4,4-trifluoro-1-(3-fluoro-1H-indazol-5-yl)-2-phenylbut-1-en-1-yl)phenoxy)ethyl)amino)but-2-en-1-one] | No (“No” indicates a TDI shift greater than or equal to 1 and less than 3) |
| – | CNC(=O)/C=C/CNCCOc1ccc(/C(=C(/CC(F)(F)F)c2ccccc2)c2ccc3[nH]ncc3c2)cc1 [Compound 10, (E)-N-methyl-4-((2-(4-((E)-4,4,4-trifluoro-1-(1H-indazol-5-yl)-2-phenylbut-1-en-1-yl)phenoxy)ethyl)amino)but-2-enamide] | Yes (“Yes” indicates a TDI shift greater than or equal to 3) |
